Blank lines part the entries; values can stand above or below the compound they belong to.
Tests used:
[1] = AUC (0 to infinity) in Sprague-Dawley rat at 0.5 mg/kg, iv measured upto 24 hrs by LC/MS/MS analysis; format: ADME, organism-based; conditions: in vivo
[2] = target: T1, Potassium voltage-gated channel subfamily B member 1 (Homo sapiens, UniProt Q14721); test: Inhibition of human KV2.1 stably expressed in HEK293 cells by whole cell patch-clamp assay; format: cell-based
T1 sequence (Q14721 whole entry): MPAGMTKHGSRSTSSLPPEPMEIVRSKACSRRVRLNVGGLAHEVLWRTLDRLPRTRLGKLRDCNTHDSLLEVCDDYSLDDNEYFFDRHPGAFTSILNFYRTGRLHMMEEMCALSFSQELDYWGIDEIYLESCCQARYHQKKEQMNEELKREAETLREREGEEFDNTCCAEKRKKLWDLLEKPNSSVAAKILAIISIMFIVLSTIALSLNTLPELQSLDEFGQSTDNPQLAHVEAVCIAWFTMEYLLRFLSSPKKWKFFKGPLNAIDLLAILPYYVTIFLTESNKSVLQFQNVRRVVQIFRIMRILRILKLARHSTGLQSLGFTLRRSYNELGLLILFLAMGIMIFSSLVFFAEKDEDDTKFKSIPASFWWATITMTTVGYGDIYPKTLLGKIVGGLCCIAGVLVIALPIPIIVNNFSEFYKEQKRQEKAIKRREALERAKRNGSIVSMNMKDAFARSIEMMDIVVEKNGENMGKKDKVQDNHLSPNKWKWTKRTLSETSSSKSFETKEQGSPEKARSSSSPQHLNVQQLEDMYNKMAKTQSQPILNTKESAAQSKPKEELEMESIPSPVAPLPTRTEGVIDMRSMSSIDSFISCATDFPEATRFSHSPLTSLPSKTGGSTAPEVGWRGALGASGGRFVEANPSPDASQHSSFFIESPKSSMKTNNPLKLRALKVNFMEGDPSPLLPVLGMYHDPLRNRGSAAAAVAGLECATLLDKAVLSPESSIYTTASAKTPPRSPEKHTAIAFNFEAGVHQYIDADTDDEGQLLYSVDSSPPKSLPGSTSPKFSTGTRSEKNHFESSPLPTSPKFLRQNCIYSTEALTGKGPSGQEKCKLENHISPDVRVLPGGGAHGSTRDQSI

[3] = target: Potassium voltage-gated channel subfamily A member 5 (Homo sapiens, UniProt P22460); test: Inhibition of KV1.5 (unknown origin) by whole cell patch-clamp assay
Chain of Potassium voltage-gated channel subfamily A member 5 (P22460 whole entry): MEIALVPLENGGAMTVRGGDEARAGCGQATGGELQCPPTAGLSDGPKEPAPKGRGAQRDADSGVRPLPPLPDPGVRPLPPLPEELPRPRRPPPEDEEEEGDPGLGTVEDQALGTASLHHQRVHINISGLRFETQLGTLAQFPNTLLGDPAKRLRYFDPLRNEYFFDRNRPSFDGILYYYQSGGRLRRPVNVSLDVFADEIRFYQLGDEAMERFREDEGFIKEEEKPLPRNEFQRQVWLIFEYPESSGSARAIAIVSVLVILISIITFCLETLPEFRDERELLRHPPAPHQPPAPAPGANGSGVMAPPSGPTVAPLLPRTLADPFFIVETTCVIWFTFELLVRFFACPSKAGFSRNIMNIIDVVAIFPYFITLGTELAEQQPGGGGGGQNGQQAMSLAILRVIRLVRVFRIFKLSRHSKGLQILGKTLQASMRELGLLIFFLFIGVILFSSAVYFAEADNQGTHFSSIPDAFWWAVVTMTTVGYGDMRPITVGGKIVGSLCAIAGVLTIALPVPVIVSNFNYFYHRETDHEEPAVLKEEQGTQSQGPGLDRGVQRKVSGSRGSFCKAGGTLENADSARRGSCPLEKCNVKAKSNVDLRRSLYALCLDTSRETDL

[4] = target: T2, Voltage-gated potassium channel KCNC1 (Homo sapiens, UniProt P48547); test: Inhibition of KV3.1 (unknown origin) by whole cell patch-clamp assay
T2 sequence (P48547 whole entry): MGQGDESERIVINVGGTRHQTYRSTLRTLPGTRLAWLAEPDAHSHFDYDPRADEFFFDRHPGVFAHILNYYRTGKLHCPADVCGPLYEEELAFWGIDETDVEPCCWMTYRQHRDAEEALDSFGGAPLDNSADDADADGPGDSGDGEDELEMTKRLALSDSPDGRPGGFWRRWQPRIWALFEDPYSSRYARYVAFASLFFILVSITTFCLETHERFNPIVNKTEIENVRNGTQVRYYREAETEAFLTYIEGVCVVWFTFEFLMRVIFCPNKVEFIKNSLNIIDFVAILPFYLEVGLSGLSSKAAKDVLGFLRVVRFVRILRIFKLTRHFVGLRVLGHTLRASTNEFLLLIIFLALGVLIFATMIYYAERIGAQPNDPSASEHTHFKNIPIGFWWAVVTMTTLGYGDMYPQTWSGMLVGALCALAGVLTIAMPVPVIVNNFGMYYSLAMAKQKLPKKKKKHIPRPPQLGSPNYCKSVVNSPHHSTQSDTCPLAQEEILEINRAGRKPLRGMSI

[5] = target: Voltage-gated inwardly rectifying potassium channel KCNH2 (Homo sapiens, UniProt Q12809); test: Inhibition of human ERG by whole cell patch-clamp assay; format: toxicity
Chain of Voltage-gated inwardly rectifying potassium channel KCNH2 (Q12809 whole entry): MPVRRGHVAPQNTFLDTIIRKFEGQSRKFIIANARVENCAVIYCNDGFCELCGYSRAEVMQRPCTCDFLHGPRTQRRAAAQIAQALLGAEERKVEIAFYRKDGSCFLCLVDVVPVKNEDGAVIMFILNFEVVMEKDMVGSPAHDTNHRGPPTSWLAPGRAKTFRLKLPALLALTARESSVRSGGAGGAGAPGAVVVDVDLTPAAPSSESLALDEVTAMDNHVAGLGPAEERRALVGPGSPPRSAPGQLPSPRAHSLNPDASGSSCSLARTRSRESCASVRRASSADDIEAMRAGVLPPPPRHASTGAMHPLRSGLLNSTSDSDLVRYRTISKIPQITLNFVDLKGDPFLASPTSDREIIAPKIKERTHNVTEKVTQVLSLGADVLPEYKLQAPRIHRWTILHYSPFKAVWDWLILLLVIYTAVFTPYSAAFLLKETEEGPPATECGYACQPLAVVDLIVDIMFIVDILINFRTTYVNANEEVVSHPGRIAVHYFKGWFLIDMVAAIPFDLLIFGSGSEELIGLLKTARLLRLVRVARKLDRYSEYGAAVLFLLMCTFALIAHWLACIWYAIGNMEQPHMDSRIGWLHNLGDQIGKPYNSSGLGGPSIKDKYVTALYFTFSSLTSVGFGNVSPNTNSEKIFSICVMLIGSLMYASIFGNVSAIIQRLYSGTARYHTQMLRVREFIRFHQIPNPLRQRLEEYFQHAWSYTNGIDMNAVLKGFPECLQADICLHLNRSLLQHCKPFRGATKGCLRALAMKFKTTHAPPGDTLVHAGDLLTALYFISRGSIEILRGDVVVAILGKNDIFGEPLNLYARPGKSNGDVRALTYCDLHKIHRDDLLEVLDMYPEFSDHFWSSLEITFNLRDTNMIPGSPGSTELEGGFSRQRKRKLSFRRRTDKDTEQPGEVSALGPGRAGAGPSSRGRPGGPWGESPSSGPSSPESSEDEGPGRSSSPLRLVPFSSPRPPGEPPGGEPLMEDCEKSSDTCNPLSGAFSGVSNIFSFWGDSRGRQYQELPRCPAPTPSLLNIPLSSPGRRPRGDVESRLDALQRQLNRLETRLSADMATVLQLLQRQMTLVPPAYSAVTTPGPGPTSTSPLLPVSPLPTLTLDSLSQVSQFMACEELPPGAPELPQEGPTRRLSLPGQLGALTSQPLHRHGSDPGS

[6] = Oral bioavailability in Sprague-Dawley rat at 5 mg/kg measured upto 24 hrs by LC/MS/MS analysis; format: ADME, organism-based; conditions: in vivo
[7] = Terminal elimination half life in Sprague-Dawley rat at 5 mg/kg, po measured upto 24 hrs by LC/MS/MS analysis; format: ADME, organism-based; conditions: in vivo, read-out: beta t1/2 (converted)
[8] = Terminal elimination half life in Sprague-Dawley rat at 0.5 mg/kg, iv measured upto 24 hrs by LC/MS/MS analysis; format: ADME, organism-based; conditions: in vivo, read-out: beta t1/2 (converted)
[9] = Tmax in Sprague-Dawley rat at 5 mg/kg, po measured upto 24 hrs by LC/MS/MS analysis; format: ADME, organism-based; conditions: in vivo
[10] = Cmax in Sprague-Dawley rat at 5 mg/kg, po measured upto 24 hrs by LC/MS/MS analysis; format: ADME, organism-based; conditions: in vivo
[11] = Cmax in Sprague-Dawley rat at 0.5 mg/kg, iv measured upto 24 hrs by LC/MS/MS analysis; format: ADME, organism-based; conditions: in vivo
[12] = AUC (0 to t) in Sprague-Dawley rat at 5 mg/kg, po measured upto 24 hrs by LC/MS/MS analysis; format: ADME, organism-based; conditions: in vivo
[13] = AUC (0 to t) in Sprague-Dawley rat at 0.5 mg/kg, iv measured upto 24 hrs by LC/MS/MS analysis; format: ADME, organism-based; conditions: in vivo
[14] = AUC (0 to infinity) in Sprague-Dawley rat at 5 mg/kg, po measured upto 24 hrs by LC/MS/MS analysis; format: ADME, organism-based; conditions: in vivo
[15] = MRT (0 to t) in Sprague-Dawley rat at 5 mg/kg, po measured upto 24 hrs by LC/MS/MS analysis; format: ADME, organism-based; conditions: in vivo
[16] = MRT (0 to infinity) in Sprague-Dawley rat at 5 mg/kg, po measured upto 24 hrs by LC/MS/MS analysis; format: ADME, organism-based; conditions: in vivo
[17] = MRT (0 to infinity) in Sprague-Dawley rat at 0.5 mg/kg, iv measured upto 24 hrs by LC/MS/MS analysis; format: ADME, organism-based; conditions: in vivo
[18] = Apparent volume of distribution in Sprague-Dawley rat at […], iv measured upto 24 hrs by LC/MS/MS analysis; format: ADME, organism-based; conditions: in vivo, read-out: Vz
[19] = Clearance in Sprague-Dawley rat at 0.5 mg/kg, iv measured upto 24 hrs by LC/MS/MS analysis; format: ADME, organism-based; conditions: in vivo
[20] = Plasma concentration in rat at 5 mg/kg, po measured after 30 mins; format: ADME, organism-based
[21] = Brain concentration in rat at 5 mg/kg, po measured after 30 mins; format: ADME, organism-based; conditions: read-out: Ct
[22] = Plasma concentration in rat at 1 mg/kg, iv measured after 15 mins; format: ADME, organism-based
[23] = Brain concentration in rat at 1 mg/kg, iv measured after 15 mins; format: ADME, organism-based; conditions: read-out: Ct
[24] = Plasma concentration in rat at 1 mg/kg, iv measured after 30 mins; format: ADME, organism-based
[25] = Brain concentration in rat at 1 mg/kg, iv measured after 30 mins; format: ADME, organism-based; conditions: read-out: Ct
HEK293 [26] = test: Anti-apoptotic activity in HEK293 cells harbouring Kv2.1 assessed as viable cells at 0.3 uM by annexin-V and propidium staining based flow cytometry analysis (reference value: 99.8%); format: functional; conditions: Homo sapiens, read-out: Activity
HEK293 [27] = test: Anti-apoptotic activity in HEK293 cells harbouring Kv2.1 assessed as viable cells at 3 uM by annexin-V and propidium staining based flow cytometry analysis (reference value: 99.8%); format: functional; conditions: Homo sapiens, read-out: Activity
HEK293 [28] = test: cells; conditions: Homo sapiens, HEK293, read-out: Activity; at 10 mM
Description: Anti-apoptotic activity in HEK293 cells harbouring Kv2.1 assessed as viable cells at 10 mM by annexin-V and propidium staining based flow cytometry analysis (Rvb = 99.8% )

AUC(0-inf) [1]: 174 ng·h/mL
IC50 [2]: 0.07 µM
IC50 [3]: 9.2 µM
IC50 [4]: > 30 µM
bioavailability [6]: 20.4%
half-life [7]: 1.89 h
half-life [8]: 0.51 h
Tmax [9]: 0.65 h
Cmax [10]: 147 ng/mL
Cmax [11]: 693 ng/mL
AUC(0-t) at 24 h [12]: 337 ng·h/mL
AUC(0-t) at 24 h [13]: 174 ng·h/mL
AUC(0-inf) [14]: 355 ng·h/mL
MRT last at 24 h [15]: 2.05 h
MRT inf [16]: 2.52 h
MRT inf [17]: 1.39 h
Vd [18]: 2.1 L/kg
clearance [19]: 48 mL/min/kg
concentration at 0.5 h [20]: 580 ng/mL
concentration at 0.5 h [21]: 54.9 ng/g
concentration at 0.25 h [22]: 539 ng/mL
concentration at 0.25 h [23]: 38.2 ng/g
concentration at 0.5 h [24]: 235 ng/mL
concentration at 0.5 h [25]: 14.6 ng/g
SMILES: CCOc1ccc(NC(=O)C(C)C)cc1C(=O)NC(C)c1cccc(NC)c1 (stereo not drawn)
IC50 [5]: 30 µM
viability at 0.3 µM (HEK293 [26]): 62%
viability at 3 µM (HEK293 [27]): 55.4%

SMILES: CC[N+](CC)(CC)CC [TETRYLAMMONIUM]
viability at 10000 µM (HEK293 [28]): 58.4%

From ChEMBL document CHEMBL5532672, “Discovery of 2-Ethoxy-5-isobutyramido-N-1-substituted Benzamide Derivatives as Selective Kv2.1 Inhibitors with In Vivo Neuroprotective Effects” (J Med Chem, 2024)
